The assay concerns the target T1, GCase (Homo sapiens, UniProt P04062).
T1 construct: endogenous in cells; host or cells: HeLa cells
T1 sequence (P04062 40-536): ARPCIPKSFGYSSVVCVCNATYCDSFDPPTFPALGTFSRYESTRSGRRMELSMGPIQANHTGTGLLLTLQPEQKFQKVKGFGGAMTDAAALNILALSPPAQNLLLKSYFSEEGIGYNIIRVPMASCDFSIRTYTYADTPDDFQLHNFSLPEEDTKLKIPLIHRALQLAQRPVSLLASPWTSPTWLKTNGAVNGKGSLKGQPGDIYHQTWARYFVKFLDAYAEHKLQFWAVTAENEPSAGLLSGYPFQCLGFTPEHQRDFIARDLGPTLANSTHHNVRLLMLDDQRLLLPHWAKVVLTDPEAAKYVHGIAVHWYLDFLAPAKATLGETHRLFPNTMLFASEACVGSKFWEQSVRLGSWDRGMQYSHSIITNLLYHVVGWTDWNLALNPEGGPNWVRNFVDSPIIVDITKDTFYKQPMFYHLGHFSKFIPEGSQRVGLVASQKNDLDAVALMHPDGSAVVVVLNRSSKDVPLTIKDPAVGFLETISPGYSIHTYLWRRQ
The assay is described as follows: activation of GCase in a live cell PFB assay in HELA cells. The assay is classed as cell-based.
`COCCn1ncc2ncc(N3C[C@@H](C)C[C@H](COc4cccnc4C(F)(F)F)C3)nc21` [Compound 230b, 1-(2-Methoxyethyl)-6-((3S,5S)-3-methyl-5-(((2-(trifluoromethyl)pyridin-3-yl)oxy)methyl)piperidin-1-yl)-1H-pyrazolo[3,4-b]pyrazine]: the EC50 is under 10 µM.

Consider `Cc1ccccc1CCC(=O)N1CCCC(COc2ccccc2)C1` (stereo not shown) [Compound 129], for which the EC50 is 10 to 50 µM.

Compound `CCn1ncc2ncc(N3CCCC(COc4ccccc4C(F)(F)F)C3)nc21` (stereo not shown) [Compound 16, 1-{1-ethylpyrazolo[3,4-b]pyrazin-6-yl}-3-[2-(trifluoromethyl)phenoxymethyl]piperidine] yielded an EC50 of 10 to 50 µM.

For `O=C(c1ccc2cc[nH]c2c1)N1CCC(Oc2ccc(C(F)(F)F)cn2)CC1` [Compound 333, (1H-Indol-6-yl)(4-((5-(trifluoromethyl)pyridin-2-yl)oxy)piperidin-1-yl)methanone], the EC50 is 10 to 50 µM.

As to `CCNC(=O)c1ccc(N2CCC(COc3ccc(OC)cc3)CC2)nc1` [Compound 438], the EC50 lay within 10 to 50 µM.

Compound `CC(=O)N1CCC(c2cc3nc(N4CCCC(COc5ccccc5)C4)cnc3n2C)CC1` (stereo not shown) [Compound 41, 1-(4-{5-Methyl-2-[3-(phenoxymethyl)piperidin-1-yl]-5H-pyrrolo[2,3-b]pyrazin-6-yl}piperidin-1-yl)ethan-1-one] displayed an EC50 of over 100 µM.

`O=C(c1cnn[nH]1)N1CCC(COc2ccc3c(c2)CCC3)CC1` [Compound 423] came in with an EC50 of 50 to 100 µM.

For `Cn1c(-c2ccccc2)cc2ncc(C(=O)N3CCCC(COc4cccnc4C(F)(F)F)C3)nc21` (stereo not shown) [Compound 50, (5-Methyl-6-phenyl-5H-pyrrolo[2,3-b]pyrazin-3-yl)(3-(((2-(trifluoromethyl)pyridin-3-yl)oxy)methyl)piperidin-1-yl)methanone], the EC50 fell in the range of 10 to 50 µM.

Turning to `COc1ccc(OCC2CCN(c3nc(C)ncc3Cl)CC2)cc1` [Compound 421], the EC50 was 10 to 50 µM.

`CC1CCC(COc2cccnc2C(F)(F)F)CN1C(=O)c1ccc2cc[nH]c2c1` (stereo not shown) [Compound 128, (1H-Indol-6-yl)(2-methyl-5-(((2-(trifluoromethyl)pyridin-3-yl)oxy)methyl)piperidin-1-yl)methanone] gave an EC50 of 10 to 50 µM.

In turn, `FC(F)Cn1ncc2ncc(N3C[C@@H]4[C@@H](COc5ccc(C(F)(F)F)cn5)[C@@H]4C3)nc21` [Compound 61, (1R,5S,6S)-3-[1-(2,2-difluoroethyl)-1H-pyrazolo[3,4-b]pyrazin-6-yl]-6-({[5-(trifluoromethyl)pyridin-2-yl]oxy}methyl)-3-azabicyclo[3.1.0]hexane] registered an EC50 of 10 to 50 µM.

The compound `FC(F)Cn1ncc2ncc(N3CCCC(F)(COc4cccc(C(F)(F)F)n4)C3)nc21` (stereo not shown) [Compound 43, 2-({1-[1-(2,2-Difluoroethyl)-1H-pyrazolo[3,4-b]pyrazin-6-yl]-3-fluoropiperidin-3-yl}methoxy)-6-(trifluoromethyl)pyridine] registered an EC50 of 10 to 50 µM.

Turning to `Cc1ccc(-c2nc(N3CCC(CO)CC3)ncc2-c2ccc(CO)cc2)cc1` [Compound 485], the 50% effective concentration (EC50) lay in the range of 10 to 50 µM.

`COc1ccc(OCC2CCN(C(=O)NCCc3nccs3)CC2)cc1` [Compound 480] returned an EC50 of over 100 µM.

In turn, `C[C@@H]1C[C@@H](COc2cccnc2C(F)(F)F)CN(c2cnc3cnn(CC(F)F)c3n2)C1` [Compound 95, 1-(2,2-Difluoroethyl)-6-((3R,5R)-3-methyl-5-(((2-(trifluoromethyl)pyridin-3-yl)oxy)methyl)piperidin-1-yl)-1H-pyrazolo[3,4-b]pyrazine] showed an EC50 of under 10 µM.

Consider `O=C(c1ccc2cc[nH]c2c1)N1CCC(Oc2ccncc2C(F)(F)F)CC1` [Compound 318, (1H-Indol-6-yl)(4-((3-(trifluoromethyl)pyridin-4-yl)oxy)piperidin-1-yl)methanone], for which the EC50 was 10 to 50 µM.

`Cc1ccccc1OCC1CCCN(C(=O)c2cnn3c(-c4ccccc4)ccc(Cl)c23)C1` (stereo not shown) [Compound 25, (4-Chloro-7-phenylpyrazolo[1,5-a]pyridin-3-yl)(3-((o-tolyloxy)methyl)piperidin-1-yl)methanone] gave an EC50 of 10 to 50 µM.

For `Cn1c(-c2ccccc2)c(C(=O)N2CCCC(COc3ccccc3OC(F)(F)F)C2)c2nccnc21` (stereo not shown) [Compound 236, (5-Methyl-6-phenyl-5H-pyrrolo[2,3-b]pyrazin-7-yl)(3-((2-(trifluoromethoxy)phenoxy)methyl)piperidin-1-yl)methanone], the EC50 was in the range of 10 to 50 µM.

Regarding `COc1ccc(OCC2CCN(C(=O)Cn3cnnn3)CC2)cc1` [Compound 484], the 50% effective concentration (EC50) is over 100 µM.

As for `C[C@H]1CC[C@H](COc2cccnc2C(F)(F)F)CN1c1cnc2cnn(CC(F)F)c2n1` [Compound 78, 3-{[(3S,6S)-1-[1-(2,2-Difluoroethyl)pyrazolo[3,4-b]pyrazin-6-yl]-6-methylpiperidin-3-yl]methoxy}-2-(trifluoromethyl)pyridine], the EC50 is over 100 µM.

In the case of `CCC(C)(C)C(=O)N1CCC(COc2cccc(C(F)(F)F)n2)CC1` [Compound 350], the 50% effective concentration (EC50) lay in the range of 50 to 100 µM.

Compound `CC(C)(c1ccccc1)c1nnc(C(=O)N2CCCC(COc3ccccc3)C2)o1` (stereo not shown) [Compound 24, (3-(Phenoxymethyl)piperidin-1-yl)(5-(2-phenylpropan-2-yl)-1,3,4-oxadiazol-2-yl)methanone] displayed an EC50 of 10 to 50 µM.

In the case of `COc1ccc(OCC2CCN(c3cncc(C(=O)N4CCCC4)n3)CC2)cc1` [Compound 437], the 50% effective concentration (EC50) was in the range of 10 to 50 µM.

With `O=C(Cc1csc(-c2ccccc2)n1)N1CCC(OCCc2ccccc2)CC1` [Compound 336, 2-(2-Phenyl-1,3-thiazol-4-yl)-1-[4-(2-phenylethoxy)piperidin-1-yl]ethan-1-one], the 50% effective concentration (EC50) fell in the range of 10 to 50 µM.

Compound `CN(CC1CCCN(c2ncccc2C(F)(F)F)C1)c1cnc2cnn(CC(F)F)c2n1` (stereo not shown) [Compound 289, 1-(2,2-Difluoroethyl)-N-methyl-N-((1-(3-(trifluoromethyl)pyridin-2-yl)piperidin-3-yl)methyl)-1H-pyrazolo[3,4-b]pyrazin-6-amine] gave an EC50 of under 10 µM.

Compound `COc1ccc(OCC2CCN(C(=O)c3cc(C(C)C)nc(N)n3)CC2)cc1` [Compound 461] displayed an EC50 of 10 to 50 µM.

`CO[C@@H]1CCN(c2cnc3cnn(CC(F)F)c3n2)C[C@@H]1COc1cccnc1C(F)(F)F` [Compound 298a, 1-(2,2-Difluoroethyl)-6-((3R,4R)-4-methoxy-3-(((2-(trifluoromethyl)pyridin-3-yl)oxy)methyl)piperidin-1-yl)-1H-pyrazolo[3,4-b]pyrazine] came in with an EC50 of 50 to 100 µM.

Compound `CC(C)c1cc(C(=O)N2C[C@@H](C)C[C@H](COc3cccnc3C(F)(F)F)C2)[nH]n1` [Compound 234b, (3-Isopropyl-1H-pyrazol-5-yl)((3S,5S)-3-methyl-5-(((2-(trifluoromethyl)pyridin-3-yl)oxy)methyl)piperidin-1-yl)methanone] yielded a 50% effective concentration (EC50) of 10 to 50 µM.

Regarding `CC1CCN(c2cnc3cnn(CC(F)F)c3n2)CC1COc1cccnc1C(F)(F)F` (stereo not shown) [Compound 48, 1-(2,2-Difluoroethyl)-6-(4-methyl-3-(((2-(trifluoromethyl)pyridin-3-yl)oxy)methyl)piperidin-1-yl)-1H-pyrazolo[3,4-b]pyrazine], the 50% effective concentration (EC50) is under 10 µM.

As for `Cc1cccnc1OCC1CCN(C(=O)C2(c3ccccc3)CCOCC2)CC1` [Compound 360], the half-maximal effective concentration (EC50) was 10 to 50 µM.

`Fc1cc(F)cc(OCC2CCCN(c3cnc4cnn(C5COC5)c4n3)C2)c1` (stereo not shown) [Compound 88, 6-(3-((3,5-Difluorophenoxy)methyl)piperidin-1-yl)-1-(oxetan-3-yl)-1H-pyrazolo[3,4-b]pyrazine] gave an EC50 of 10 to 50 µM.

In turn, `COc1ccc(OCC2CCN(Cc3cc(C)no3)CC2)cc1` [Compound 425] came in with an EC50 of over 100 µM.

`COc1ccc(OCC2CCN(c3nc(N)nc(C)c3C)CC2)cc1` [Compound 458]: the EC50 is over 100 µM.

For `CCc1cc(N2CCC(COc3ccc(OC)cc3)CC2)ncn1` [Compound 464], the EC50 fell in the range of 10 to 50 µM.

As for `FC(F)Cn1ncc2ncc(N3CCC(COc4cccc(C(F)(F)F)n4)CC3)nc21` [Compound 328, 2-({1-[1-(2,2-Difluoroethyl)-1H-pyrazolo[3,4-b]pyrazin-6-yl]piperidin-4-yl}methoxy)-6-(trifluoromethyl)pyridine], the EC50 lay in the range of 10 to 50 µM.

With `Cc1ccccc1OCC1CCCN(C(=O)c2cnc3c(cnn3-c3ccccc3)n2)C1` (stereo not shown) [Compound 67, (1-phenyl-1H-pyrazolo[3,4-b]pyrazin-5-yl)(3-((o-tolyloxy)methyl)piperidin-1-yl)methanone], the EC50 was in the range of 10 to 50 µM.

Compound `COc1ccc2c(c1)CCCC2CC(=O)N1CCCC(COc2ccccc2)C1` (stereo not shown) [Compound 135] displayed a half-maximal effective concentration (EC50) of 10 to 50 µM.

Consider `Cn1c(-c2ccc(F)cc2)nc2nc(C(=O)N3CCCC(COc4cccnc4C(F)(F)F)C3)cnc21` (stereo not shown) [Compound 97, (2-(4-Fluorophenyl)-1-methyl-1H-imidazo[4,5-b]pyrazin-5-yl)(3-(((2-(trifluoromethyl)pyridin-3-yl)oxy)methyl)piperidin-1-yl)methanone], for which the EC50 is over 100 µM.

As for `O=C(Cc1c[nH]c2ccccc12)N1CCC(Oc2ccc(C(F)(F)F)cn2)CC1` [Compound 7], the half-maximal effective concentration (EC50) was in the range of 10 to 50 µM.

On to `N#Cc1cc(C(F)(F)F)cnc1OC1CCN(C(=O)c2ccc3cc[nH]c3c2)CC1` [Compound 332, 2-((1-(1H-Indole-6-carbonyl)piperidin-4-yl)oxy)-5-(trifluoromethyl)nicotinonitrile], for which the concentration giving a half-maximal response (EC50) lay in the range of 10 to 50 µM.

The values above are taken from patent publication US20240262832A1, “SMALL MOLECULE MODULATORS OF GLUCOCEREBROSIDASE ACTIVITY AND USES THEREOF” (Vanqua Bio, Inc., priority 2021, published 2024).
